Measurements published in PubChem BioAssay (NCI).
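Tested at 5 concentrations; 48 h exposure; 96-well plates; endpoints linearly interpolated, else capped at highest concentration. GI50 marks 50% less growth. TGI: total growth inhibition.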

The molecules below were run on MDA-MB-435 (assay: NCI tumour cell line growth inhibition, 48 h).

Structure (SMILES)	GI50	TGI
C[C@]12CCc3sc(NCCc4ccccc4)nc3C1=CC[C@@H]1[C@@H]2CC[C@]2(C)C(=O)CC[C@@H]12	3.01 µM	> 100 µM
COc1cccc(C2=C(c3c(C)n(C)c4ccccc34)C(=O)NC2=O)c1	7.33 µM	> 25 µM
CCN(Cc1ccc(F)cc1)c1ccc(CO)c(F)c1	22.8 µM	> 72.4 µM
O=C(Cn1c(=O)c(-c2ccccc2)nc2ccccc21)Nc1ccc(F)cc1	> 100 µM	> 100 µM
CN(C)CCNC(=O)c1cc([N+](=O)[O-])cc2c1Oc1ccccc1O2	–	> 100 µM
O=C1C(N2CC2)=C(N2CC2)C(=O)C(N2CC2)=C1N1CC1	0.706 µM	2.3 µM
O=C(O)C1OC1(c1cccc(Cl)c1)c1ccccc1Cl (stereo unspecified)	–	> 100 µM
CCCCC[C@H]1C/C=C2/C(=O)C=C[C@@H]2C/C=C\CCCC(=O)O[C@@H](CCCCC)C/C=C2/C(=O)C=C[C@@H]2C/C=C\CCCC(=O)O1	0.0959 µM	0.412 µM
O=C(Nc1cccc(-n2cc(-c3ccncc3)c(-c3cc(O)cc(Cl)c3)n2)c1)Nc1ccc(Cl)c(C(F)(F)F)c1	1.78 µM	3.89 µM
CNCCCn1c2c(c3ccc([N+](=O)[O-])cc3c1=O)C(=O)c1cc(OC)cnc1-2	0.15 µM	1.17 µM
Cc1cc(Cl)ccc1Nc1nc(C(F)(F)F)ccc1C(=O)N/N=C/c1ccc(Cl)cc1	1.42 µM	3.89 µM
COc1cc2oc3cc(=O)cc4oc(-c5ccccc5)cc(c2c2c1CCC(c1ccccc1)O2)c43 (stereo unspecified)	–	56 µM
c1cc2n(n1)CCN2	–	> 10000 µM
COc1cc(Nc2c(C#N)cnc3cc(OCCCN4CCN(C)CC4)c(OC)cc23)c(Cl)cc1Cl	1.97 µM	5.36 µM
O=CN/C=C/c1cccc(O)c1	–	> 100 µM
Nc1ccc2c(SCc3ccc([N+](=O)[O-])cc3)c3ccccc3nc2c1	–	33.7 µM
O=c1ccn(C2CC(O)C(CO)O2)c(=O)[nH]1 (stereo unspecified)	> 5000 µM	> 5000 µM
O=C(N/C(=C/c1ccc(Cl)cc1Cl)c1nc2ccccc2s1)c1ccccc1	–	30.2 µM
CCOC(=O)c1cc2c(n1Cc1cccc(OC)c1)-c1oncc1CCC2	0.153 µM	0.456 µM
COc1c(O)cc2oc(-c3ccc(O)cc3)cc(=O)c2c1O	–	> 100 µM
COc1cccc(-c2nn(-c3ccccc3)cc2-c2ccnc(NCCCNC(=O)Nc3ccc(Cl)c(Cl)c3)c2)c1	2.01 µM	4.82 µM
COc1cc2ccccc2oc1=O	–	> 100 µM
Nc1nc(N)c2nc(CNc3ccc(C(=O)NC(CC(=O)O)C(=O)O)cc3)cnc2n1 (stereo unspecified)	0.465 µM	> 100 µM
COc1cc2c3c(n(CCCCN)c(=O)c2cc1OC)-c1cc2c(cc1C3=O)OCO2	2.29 µM	7.32 µM
N#CCCN(CCCN(CCCN(C(=O)Nc1ccccc1)c1ccccc1)C(=O)Nc1ccccc1)C(=O)Nc1ccccc1	34.9 µM	> 100 µM
NC(=O)c1ccccc1Nc1ccc2nnc(-c3ccncc3)n2n1	7.1 µM	26.9 µM
COc1cccc2c1ccc1nc3cccc(C(=O)N[C@H](C)CN(C)C)c3nc12	0.0976 µM	0.986 µM
NC(=O)c1ccc(I)c(N=O)c1	29.6 µM	89.5 µM
COc1ccc2c(=O)cc(-c3ccncc3)oc2c1OC	–	> 100 µM

These molecules were tested on HCT-15 colon (assay: NCI tumour cell line growth inhibition, 48 h).

Structure (SMILES)	GI50	TGI
C[C@]12CCc3sc(NCCc4ccccc4)nc3C1=CC[C@@H]1[C@@H]2CC[C@]2(C)C(=O)CC[C@@H]12	1.57 µM	4.49 µM
COc1cccc(C2=C(c3c(C)n(C)c4ccccc34)C(=O)NC2=O)c1	12.1 µM	> 25 µM
CCN(Cc1ccc(F)cc1)c1ccc(CO)c(F)c1	10.4 µM	> 88.1 µM
O=C(Cn1c(=O)c(-c2ccccc2)nc2ccccc21)Nc1ccc(F)cc1	> 100 µM	> 100 µM
O=C1C(N2CC2)=C(N2CC2)C(=O)C(N2CC2)=C1N1CC1	0.15 µM	0.901 µM
O=C(O)C1OC1(c1cccc(Cl)c1)c1ccccc1Cl (stereo unspecified)	–	22.9 µM
CCCCC[C@H]1C/C=C2/C(=O)C=C[C@@H]2C/C=C\CCCC(=O)O[C@@H](CCCCC)C/C=C2/C(=O)C=C[C@@H]2C/C=C\CCCC(=O)O1	0.428 µM	1.01 µM
O=C(Nc1cccc(-n2cc(-c3ccncc3)c(-c3cc(O)cc(Cl)c3)n2)c1)Nc1ccc(Cl)c(C(F)(F)F)c1	2.21 µM	6.01 µM
CNCCCn1c2c(c3ccc([N+](=O)[O-])cc3c1=O)C(=O)c1cc(OC)cnc1-2	0.119 µM	0.714 µM
Cc1cc(Cl)ccc1Nc1nc(C(F)(F)F)ccc1C(=O)N/N=C/c1ccc(Cl)cc1	0.895 µM	13.1 µM
COc1cc2oc3cc(=O)cc4oc(-c5ccccc5)cc(c2c2c1CCC(c1ccccc1)O2)c43 (stereo unspecified)	–	91.9 µM
c1cc2n(n1)CCN2	–	> 10000 µM
COc1cc(Nc2c(C#N)cnc3cc(OCCCN4CCN(C)CC4)c(OC)cc23)c(Cl)cc1Cl	1.21 µM	11.8 µM
O=CN/C=C/c1cccc(O)c1	–	> 100 µM
Nc1ccc2c(SCc3ccc([N+](=O)[O-])cc3)c3ccccc3nc2c1	–	31.1 µM
O=c1ccn(C2CC(O)C(CO)O2)c(=O)[nH]1 (stereo unspecified)	> 5000 µM	> 5000 µM
O=C(N/C(=C/c1ccc(Cl)cc1Cl)c1nc2ccccc2s1)c1ccccc1	–	13.3 µM
CCOC(=O)c1cc2c(n1Cc1cccc(OC)c1)-c1oncc1CCC2	0.473 µM	> 100 µM
COc1c(O)cc2oc(-c3ccc(O)cc3)cc(=O)c2c1O	–	> 100 µM
COc1cccc(-c2nn(-c3ccccc3)cc2-c2ccnc(NCCCNC(=O)Nc3ccc(Cl)c(Cl)c3)c2)c1	2.4 µM	6.66 µM
COc1cc2ccccc2oc1=O	–	> 100 µM
Nc1nc(N)c2nc(CNc3ccc(C(=O)NC(CC(=O)O)C(=O)O)cc3)cnc2n1 (stereo unspecified)	0.526 µM	> 100 µM
COc1cc2c3c(n(CCCCN)c(=O)c2cc1OC)-c1cc2c(cc1C3=O)OCO2	0.805 µM	9.81 µM
N#CCCN(CCCN(CCCN(C(=O)Nc1ccccc1)c1ccccc1)C(=O)Nc1ccccc1)C(=O)Nc1ccccc1	–	> 100 µM
NC(=O)c1ccccc1Nc1ccc2nnc(-c3ccncc3)n2n1	5.48 µM	22.4 µM
COc1cccc2c1ccc1nc3cccc(C(=O)N[C@H](C)CN(C)C)c3nc12	0.053 µM	10.8 µM
NC(=O)c1ccc(I)c(N=O)c1	30 µM	> 100 µM
COc1ccc2c(=O)cc(-c3ccncc3)oc2c1OC	–	> 100 µM

What follows are molecules tested on MCF7 breast (assay: NCI tumour cell line growth inhibition, 48 h).

Structure (SMILES)	GI50	TGI
C[C@]12CCc3sc(NCCc4ccccc4)nc3C1=CC[C@@H]1[C@@H]2CC[C@]2(C)C(=O)CC[C@@H]12	2.68 µM	> 100 µM
COc1cccc(C2=C(c3c(C)n(C)c4ccccc34)C(=O)NC2=O)c1	17.5 µM	> 25 µM
CCN(Cc1ccc(F)cc1)c1ccc(CO)c(F)c1	6.03 µM	60.7 µM
O=C(Cn1c(=O)c(-c2ccccc2)nc2ccccc21)Nc1ccc(F)cc1	98.7 µM	> 100 µM
CN(C)CCNC(=O)c1cc([N+](=O)[O-])cc2c1Oc1ccccc1O2	–	> 100 µM
O=C1C(N2CC2)=C(N2CC2)C(=O)C(N2CC2)=C1N1CC1	< 0.0218 µM	1.5 µM
O=C(O)C1OC1(c1cccc(Cl)c1)c1ccccc1Cl (stereo unspecified)	–	> 100 µM
CCCCC[C@H]1C/C=C2/C(=O)C=C[C@@H]2C/C=C\CCCC(=O)O[C@@H](CCCCC)C/C=C2/C(=O)C=C[C@@H]2C/C=C\CCCC(=O)O1	0.119 µM	0.484 µM
O=C(Nc1cccc(-n2cc(-c3ccncc3)c(-c3cc(O)cc(Cl)c3)n2)c1)Nc1ccc(Cl)c(C(F)(F)F)c1	2.63 µM	8.54 µM
CNCCCn1c2c(c3ccc([N+](=O)[O-])cc3c1=O)C(=O)c1cc(OC)cnc1-2	0.0132 µM	1.06 µM
Cc1cc(Cl)ccc1Nc1nc(C(F)(F)F)ccc1C(=O)N/N=C/c1ccc(Cl)cc1	1.55 µM	4.7 µM
COc1cc2oc3cc(=O)cc4oc(-c5ccccc5)cc(c2c2c1CCC(c1ccccc1)O2)c43 (stereo unspecified)	–	59.2 µM
c1cc2n(n1)CCN2	–	> 8650 µM
